Results: patent US6645918B1, “N-([1,2,4]triazoloazinyl)thiophenesulfonamide compounds and their use as herbicides” (Dow AgroSciences LLC, priority 2000, dated 2003)

Assays:
Format in all cases: in vivo
[1] = test system: velvetleaf (Abutilion theophrasti); assay: Postemergence herbicidal activity, velvetleaf; settings: foliar spray, visual after 2 weeks, 0 no injury, 100 complete kill
Method in brief: (§1)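 Postemergence foliar spray to pots at 1st–2nd true leaf, grown 7–21 d at ~23–29 °C day. Spray carrier: acetone/water/IPA/DMSO/crop oil/Triton X-155; 1 ppm ≈ 1 g/ha. Read-out: visual injury 0 (none) to 100% (complete kill), 2 wk.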

viola (Viola tricolor) = assay: Postemergence herbicidal activity, viola; settings: foliar spray, visual after 2 weeks, 0 no injury, 100 complete kill
Method in brief: as §1

[2] = test system: morningglory (Ipomoea hederacea); assay: Preemergence herbicidal activity, morningglory; settings: soil spray, visual after 3 weeks, 0 no injury, 100 complete kill or no germination
Method in brief: (§2)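 Visual injury score (0% = none, 100% = complete kill or no germination) vs untreated controls at 3 weeks. Pre-emergence soil spray on seeded pots, max 4.48 kg/ha. Greenhouse: ~15 h photoperiod, day 23-29 °C, night 22-28 °C, top-irrigated.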

[3] = test system: Rox orange sorghum (Sorghum bicolor); assay: Preemergence herbicidal activity, Rox orange sorghum; settings: soil spray, visual after 3 weeks, 0 no injury, 100 complete kill or no germination
Method in brief: as §2

[4] = test system: blackgrass (Alopecurus myosuroides); assay: Postemergence herbicidal activity, blackgrass; settings: foliar spray, visual after 2 weeks, 0 no injury, 100 complete kill
Method in brief: as §1

[5] = test system: crabgrass (Digitaria sanguinalis); assay: Preemergence herbicidal activity, crabgrass; settings: soil spray, visual after 3 weeks, 0 no injury, 100 complete kill or no germination
Method in brief: as §2

[6] = test system: cocklebur (Xanthium strumarium); assay: Preemergence herbicidal activity, cocklebur; settings: soil spray, visual after 3 weeks, 0 no injury, 100 complete kill or no germination
Method in brief: as §2

[7] = test system: wild poinsettia (Euphorbia heterophylla); assay: Preemergence herbicidal activity, wild poinsettia; settings: soil spray, visual after 3 weeks, 0 no injury, 100 complete kill or no germination
Method in brief: as §2

[8] = test system: pigweed (Amaranthus retroflexus); assay: Postemergence herbicidal activity, pigweed; settings: foliar spray, visual after 2 weeks, 0 no injury, 100 complete kill
Method in brief: as §1

[9] = test system: chickweed (Stellaria media); assay: Postemergence herbicidal activity, chickweed; settings: foliar spray, visual after 2 weeks, 0 no injury, 100 complete kill
Method in brief: as §1

[10] = test system: wild buckwheat (Polygonum convolvulus); assay: Postemergence herbicidal activity, wild buckwheat; settings: foliar spray, visual after 2 weeks, 0 no injury, 100 complete kill
Method in brief: as §1

[11] = test system: morningglory (Ipomoea hederacea); assay: Postemergence herbicidal activity, morningglory; settings: foliar spray, visual after 2 weeks, 0 no injury, 100 complete kill
Method in brief: as §1

[12] = test system: barnyardgrass (Echinochloa crus-galli); assay: Preemergence herbicidal activity, barnyardgrass; settings: soil spray, visual after 3 weeks, 0 no injury, 100 complete kill or no germination
Method in brief: as §2

[13] = test system: cocklebur (Xanthium strumarium); assay: Postemergence herbicidal activity, cocklebur; settings: foliar spray, visual after 2 weeks, 0 no injury, 100 complete kill
Method in brief: as §1

wild oats (Avena fatua) [14] = assay: Preemergence herbicidal activity, wild oats; settings: soil spray, visual after 3 weeks, 0 no injury, 100 complete kill or no germination
Method in brief: as §2

[15] = test system: lambsquarters (Chenopodium album); assay: Preemergence herbicidal activity, lambsquarters; settings: soil spray, visual after 3 weeks, 0 no injury, 100 complete kill or no germination
Method in brief: as §2

[16] = test system: giant foxtail (Setaria faberi); assay: Postemergence herbicidal activity, giant foxtail; settings: foliar spray, visual after 2 weeks, 0 no injury, 100 complete kill
Method in brief: as §1

[17] = test system: giant foxtail (Setaria faberi); assay: Preemergence herbicidal activity, giant foxtail; settings: soil spray, visual after 3 weeks, 0 no injury, 100 complete kill or no germination
Method in brief: as §2

[18] = test system: Rox orange sorghum (Sorghum bicolor); assay: Postemergence herbicidal activity, Rox orange sorghum; settings: foliar spray, visual after 2 weeks, 0 no injury, 100 complete kill
Method in brief: as §1

[19] = test system: lambsquarters (Chenopodium album); assay: Postemergence herbicidal activity, lambsquarters; settings: foliar spray, visual after 2 weeks, 0 no injury, 100 complete kill
Method in brief: as §1

[20] = test system: blackgrass (Alopecurus myosuroides); assay: Preemergence herbicidal activity, blackgrass; settings: soil spray, visual after 3 weeks, 0 no injury, 100 complete kill or no germination
Method in brief: as §2

[21] = test system: velvetleaf (Abutilion theophrasti); assay: Preemergence herbicidal activity, velvetleaf; settings: soil spray, visual after 3 weeks, 0 no injury, 100 complete kill or no germination
Method in brief: as §2

wild oats (Avena fatua) [22] = assay: Postemergence herbicidal activity, wild oats; settings: foliar spray, visual after 2 weeks, 0 no injury, 100 complete kill
Method in brief: as §1

[23] = test system: pigweed (Amaranthus retroflexus); assay: Preemergence herbicidal activity, pigweed; settings: soil spray, visual after 3 weeks, 0 no injury, 100 complete kill or no germination
Method in brief: as §2

## COc1csc(C)c1S(=O)(=O)Nc1nc2c(OC)cnc(OC)n2n1 [Compound 23]
[1]; 15.6 ppm
  ABUTH postemergence injury score 0-100: 90%
Viola (Viola tricolor); 15.6 ppm
  VIOTR postemergence injury score 0-100: 70%
[2]; 4.4 g/Ha
  IPOHE preemergence injury score 0-100: 80%
[3]; 4.4 g/Ha
  SORBI preemergence injury score 0-100: 100%
[4]; 15.6 ppm
  ALOMY postemergence injury score 0-100: 70%
[5]; 4.4 g/Ha
  DIGSA preemergence injury score 0-100: 100%
[6]; 4.4 g/Ha
  XANST preemergence injury score 0-100: 70%
[7]; 4.4 g/Ha
  EPHHL preemergence injury score 0-100: 90%
[8]; 15.6 ppm
  AMARE postemergence injury score 0-100: 90%
[9]; 15.6 ppm
  STEME postemergence injury score 0-100: 80%
[10]; 15.6 ppm
  POLCO postemergence injury score 0-100: 75%
[11]; 15.6 ppm
  IPOHE postemergence injury score 0-100: 40%
[12]; 4.4 g/Ha
  ECHCG preemergence injury score 0-100: 80%
[13]; 15.6 ppm
  XANST postemergence injury score 0-100: 90%
Wild oats (Avena fatua) [14]; 4.4 g/Ha
  AVEFA preemergence injury score 0-100: 90%
[15]; 4.4 g/Ha
  CHEAL preemergence injury score 0-100: 90%
[16]; 15.6 ppm
  SETFA postemergence injury score 0-100: 90%
[17]; 4.4 g/Ha
  SETFA preemergence injury score 0-100: 98%
[18]; 15.6 ppm
  SORBI postemergence injury score 0-100: 90%
[19]; 15.6 ppm
  CHEAL postemergence injury score 0-100: 80%
[20]; 4.4 g/Ha
  ALOMY preemergence injury score 0-100: 98%
[21]; 4.4 g/Ha
  ABUTH preemergence injury score 0-100: 90%
Wild oats (Avena fatua) [22]; 15.6 ppm
  AVEFA postemergence injury score 0-100: 70%
[23]; 4.4 g/Ha
  AMARE preemergence injury score 0-100: 100%

## COc1cc(OC)n2nc(NS(=O)(=O)c3c(OC)csc3C)nc2n1 [Compound 24]
[1]; 7.8 ppm
  ABUTH postemergence injury score 0-100: 70%
Viola (Viola tricolor); 7.8 ppm
  VIOTR postemergence injury score 0-100: 70%
[2]; 8.8 g/Ha
  IPOHE preemergence injury score 0-100: 98%
[3]; 8.8 g/Ha
  SORBI preemergence injury score 0-100: 100%
[4]; 7.8 ppm
  ALOMY postemergence injury score 0-100: 80%
[5]; 8.8 g/Ha
  DIGSA preemergence injury score 0-100: 98%
[6]; 8.8 g/Ha
  XANST preemergence injury score 0-100: 70%
[7]; 8.8 g/Ha
  EPHHL preemergence injury score 0-100: 80%
[8]; 7.8 ppm
  AMARE postemergence injury score 0-100: 100%
[9]; 7.8 ppm
  STEME postemergence injury score 0-100: 80%
[10]; 7.8 ppm
  POLCO postemergence injury score 0-100: 70%
[11]; 7.8 ppm
  IPOHE postemergence injury score 0-100: 80%
[12]; 8.8 g/Ha
  ECHCG preemergence injury score 0-100: 40%
[13]; 7.8 ppm
  XANST postemergence injury score 0-100: 90%
Wild oats (Avena fatua) [14]; 8.8 g/Ha
  AVEFA preemergence injury score 0-100: 70%
[15]; 8.8 g/Ha
  CHEAL preemergence injury score 0-100: 100%
[16]; 7.8 ppm
  SETFA postemergence injury score 0-100: 90%
[17]; 8.8 g/Ha
  SETFA preemergence injury score 0-100: 100%
[18]; 7.8 ppm
  SORBI postemergence injury score 0-100: 100%
[19]; 7.8 ppm
  CHEAL postemergence injury score 0-100: 85%
[20]; 8.8 g/Ha
  ALOMY preemergence injury score 0-100: 90%
[21]; 8.8 g/Ha
  ABUTH preemergence injury score 0-100: 98%
Wild oats (Avena fatua) [22]; 7.8 ppm
  AVEFA postemergence injury score 0-100: 70%
[23]; 8.8 g/Ha
  AMARE preemergence injury score 0-100: 90%

## COc1cc(OC)n2nc(NS(=O)(=O)c3c(OC)csc3C(F)(F)F)nc2n1 [Compound 25]
[1]; 31 ppm
  ABUTH postemergence injury score 0-100: 70%
Viola (Viola tricolor); 31 ppm
  VIOTR postemergence injury score 0-100: 70%
[2]; 17.5 g/Ha
  IPOHE preemergence injury score 0-100: 60%
[3]; 17.5 g/Ha
  SORBI preemergence injury score 0-100: 90%
[4]; 31 ppm
  ALOMY postemergence injury score 0-100: 80%
[5]; 17.5 g/Ha
  DIGSA preemergence injury score 0-100: 85%
[6]; 17.5 g/Ha
  XANST preemergence injury score 0-100: 50%
[7]; 17.5 g/Ha
  EPHHL preemergence injury score 0-100: 80%
[8]; 31 ppm
  AMARE postemergence injury score 0-100: 90%
[9]; 31 ppm
  STEME postemergence injury score 0-100: 60%
[10]; 31 ppm
  POLCO postemergence injury score 0-100: 70%
[11]; 31 ppm
  IPOHE postemergence injury score 0-100: 70%
[12]; 17.5 g/Ha
  ECHCG preemergence injury score 0-100: 85%
[13]; 31 ppm
  XANST postemergence injury score 0-100: 90%
Wild oats (Avena fatua) [14]; 17.5 g/Ha
  AVEFA preemergence injury score 0-100: 80%
[15]; 17.5 g/Ha
  CHEAL preemergence injury score 0-100: 90%
[16]; 31 ppm
  SETFA postemergence injury score 0-100: 80%
[17]; 17.5 g/Ha
  SETFA preemergence injury score 0-100: 85%
[18]; 31 ppm
  SORBI postemergence injury score 0-100: 95%
[19]; 31 ppm
  CHEAL postemergence injury score 0-100: 90%
[20]; 17.5 g/Ha
  ALOMY preemergence injury score 0-100: 95%
[21]; 17.5 g/Ha
  ABUTH preemergence injury score 0-100: 80%
Wild oats (Avena fatua) [22]; 31 ppm
  AVEFA postemergence injury score 0-100: 80%
[23]; 17.5 g/Ha
  AMARE preemergence injury score 0-100: 95%
